Reference: paper PMC7156458, “Synthetic biology based construction of biological activity-related library of fungal decalin-containing diterpenoid pyrones” (Nature Communications, 2020)
Like-named read-outs stand apart in the source and are kept apart here.

Experiments:
[1] = system: MCF-7 cells; assay: cell cytotoxic effects against MCF-7 cells (72 h), A490; assay type: cell-based, human; conditions: for viability at 0.1 µM / viability at 1 µM / viability at 10 µM: Homo sapiens, MCF7, 72 h, read-out: A490 (control =1) ave; for viability at 0.1 µM / viability at 1 µM / viability at 10 µM / A490 ave: MCF-7, 72 h
[2] = system: MAGI cells; assay: cytotoxicity in the anti-HIV assay (CC50); assay type: cell-based; conditions: single determinations
[3] = system: l(2)mbn cells; assay: cytotoxicity in Drosophila l(2)mbn cells; assay type: cell-based; conditions: for Luminescence Raw1: replicate 1; for Luminescence Raw2: replicate 2; for IC50: Drosophila melanogaster, cytotoxicity
Description: (§1) We screened the DDPs on the Drosophila assay system for cytotoxicity, inhibitory activity of innate immune signalling and insecticidal activity. The cytotoxicity of the DDPs was evaluated using two cell lines, embryonic macrophage-derived DL1 cells[58]–[60] and larval blood cell-derived l(2)mbn cells, and their IC50 values are listed in Supplementary Table 23.

[4] = cytotoxicity in Drosophila l(2)mbn cells; assay type: cell-based; conditions: Drosophila, l(2)mbn cells (larval blood cell-derived)
Description: as §1

[5] = 0.1 µM (DMSO 0.002%), control 1.064
[6] = 1 µM (DMSO 0.02%), control 1.104
[7] = 10 µM (DMSO 0.2%), control 1.049
[8] = average of two replicates, read-out: IC50 Average
[9] = replicate 1, read-out: IC50 (1)
[10] = replicate 2, read-out: IC50 (2)
[11] = replicate 1, relative to DMSO 1%, read-out: % viability, viability 1
[12] = replicate 2, relative to DMSO 1%, read-out: % viability, viability 2

Row | SMILES | viability at 0.1 µM ([1]; 0.1 µM (DMSO 0.002%)) [%] | viability at 1 µM ([1]; 1 µM (DMSO 0.02%)) [%] | viability at 10 µM ([1]; 10 µM (DMSO 0.2%)) [%] | A490 ave [1, 5] | A490 ave [1, 6] | A490 ave [1, 7] | Cytotoxicity [2] [µM] | Luminescence Raw1 ([3]; 0.04 µM) | Luminescence Raw2 ([3]; 0.04 µM) | Luminescence Raw1 ([3]; 0.2 µM) | Luminescence Raw2 ([3]; 0.2 µM) | Luminescence Raw1 ([3]; 1 µM) | Luminescence Raw2 ([3]; 1 µM) | Luminescence Raw1 ([3]; 4 µM) | Luminescence Raw2 ([3]; 4 µM) | Luminescence Raw1 ([3]; 10 µM) | Luminescence Raw2 ([3]; 10 µM) | Luminescence Raw1 ([3]; 20 µM) | Luminescence Raw2 ([3]; 20 µM) | IC50 ([3]; average±SEM, read-out: IC50) [µM] | also measured
1 | C=C1CC[C@H]2[C@]3(C)C[C@H](C=C(C)C)O[C@H]3CC[C@]2(C)[C@@H]1Cc1c(OC)oc(CO)c(C)c1=O [Compound 18] | 65.7 | 26.3 | 15 | 0.699 | 0.290 | 0.158 | >10 | 2968023 | 2468099 | 3357960 | 2956480 | 2768193 | 3359403 | 1663102 | 2355206 | 190041 | 205906 | 236915 | 213117 | 6 ± 1.09 | cytotoxicity against the bulk of MCF-7 cells [1]: dose-dependent cytotoxicity; IC50 [3, 8]: 6 µM; IC50 [3, 9]: 4.92 µM; IC50 [3, 10]: 7.09 µM; viability at 0.04 µM [4, 11]: 116%; viability at 0.04 µM [4, 12]: 96.2%; viability at 0.2 µM [4, 11]: 131%; viability at 0.2 µM [4, 12]: 115%; viability at 1 µM [4, 11]: 108%; viability at 1 µM [4, 12]: 131%; viability at 4 µM [4, 11]: 64.8%; viability at 4 µM [4, 12]: 91.8%; viability at 10 µM [4, 11]: 7.4%; viability at 10 µM [4, 12]: 8.02%; viability at 20 µM [4, 11]: 9.23%; viability at 20 µM [4, 12]: 8.3%
2 | C=C1CCC2C(C)(CCC=C(C)C)C(O)CCC2(C)C1Cc1c(OC)oc(CO)c(C(=O)OC)c1=O (stereo not drawn) [Compound 13] | 89.1 | 106 | 98.6 | 0.948 | 1.176 | 1.034 | >10 | 3699578 | 3900517 | 4107234 | 3571875 | 4025701 | 3137197 | 2332844 | 2029883 | 535109 | 623453 | 280543 | 241241 | 8.46 ± 0.98 | IC50 [3, 8]: 8.46 µM; IC50 [3, 9]: 9.44 µM; IC50 [3, 10]: 7.47 µM; viability at 0.04 µM [4, 11]: 144%; viability at 0.04 µM [4, 12]: 152%; viability at 0.2 µM [4, 11]: 160%; viability at 0.2 µM [4, 12]: 139%; viability at 1 µM [4, 11]: 157%; viability at 1 µM [4, 12]: 122%; viability at 4 µM [4, 11]: 90.9%; viability at 4 µM [4, 12]: 79.1%; viability at 10 µM [4, 11]: 20.9%; viability at 10 µM [4, 12]: 24.3%; viability at 20 µM [4, 11]: 10.9%; viability at 20 µM [4, 12]: 9.4%
3 | C=C1CC[C@H]2[C@]3(C)C[C@H](C=C(C)C)O[C@H]3CC[C@]2(C)[C@@H]1Cc1c(O)c(C)c(C)oc1=O [Compound 6, subglutinol B] | 55.9 | 109 | 22.4 | 0.595 | 1.207 | 0.235 | >10 | 3229071 | 3538217 | 3288590 | 2991720 | 424303 | 530313 | 220220 | 206879 | 225268 | 189211 | 213009 | 187048 | 0.85 ± 0.01 | IC50 [3, 8]: 0.85 µM; IC50 [3, 9]: 0.86 µM; IC50 [3, 10]: 0.838 µM; viability at 0.04 µM [4, 11]: 126%; viability at 0.04 µM [4, 12]: 138%; viability at 0.2 µM [4, 11]: 128%; viability at 0.2 µM [4, 12]: 117%; viability at 1 µM [4, 11]: 16.5%; viability at 1 µM [4, 12]: 20.7%; viability at 4 µM [4, 11]: 8.58%; viability at 4 µM [4, 12]: 8.06%; viability at 10 µM [4, 11]: 8.78%; viability at 10 µM [4, 12]: 7.37%; viability at 20 µM [4, 11]: 8.3%; viability at 20 µM [4, 12]: 7.29%
4 | C=C1CCC2C(C)(CC(=O)C=C(C)C)C(O)CCC2(C)C1Cc1c(O)c(C)c(C)oc1=O (stereo not drawn) [Compound 7] | 81 | 92.4 | 104 | 0.862 | 1.021 | 1.095 | >10 | 3452362 | 3328631 | 3304462 | 3461380 | 3578980 | 3388873 | 3312398 | 3370476 | 3097048 | 2956371 | 1044161 | 1013149 | > 20 | viability at 0.04 µM [4, 11]: 135%; viability at 0.04 µM [4, 12]: 130%; viability at 0.2 µM [4, 11]: 129%; viability at 0.2 µM [4, 12]: 135%; viability at 1 µM [4, 11]: 139%; viability at 1 µM [4, 12]: 132%; viability at 4 µM [4, 11]: 129%; viability at 4 µM [4, 12]: 131%; viability at 10 µM [4, 11]: 121%; viability at 10 µM [4, 12]: 115%; viability at 20 µM [4, 11]: 40.7%; viability at 20 µM [4, 12]: 39.5%
